Assay results reported in ChEMBL document CHEMBL1148633, “Inhibition of carbonic anhydrase-II by sulfamate and sulfamide groups: an investigation involving direct thermodynamic binding measurements” (J Med Chem, 2006).

Key:
Carbonic anhydrase 2 [1] = molecular target: T1, Carbonic anhydrase 2 (Homo sapiens, UniProt P00918); test: Inhibition of human CA2 by 4-nitrophenyl acetate hydrolysis
Carbonic anhydrase 2 [2] = molecular target: T1, Carbonic anhydrase 2; test: Binding affinity to human CA2 in presence of sodium sulfate and ANS at pH 7.5 by ThermoFluor assay
Carbonic anhydrase 2 [3] = molecular target: T1, Carbonic anhydrase 2
Description: Inhibition of human CA2 by carbon dioxide hydration

Carbonic anhydrase 2 [4] = molecular target: T1, Carbonic anhydrase 2; test: Binding affinity to human CA2 at pH 7.4 by ThermoFluor assay

Ki (Carbonic anhydrase 2 [1]) [nM] | Kd (Carbonic anhydrase 2 [2]) [nM] | Ki (Carbonic anhydrase 2 [3]) [nM] | Kd (Carbonic anhydrase 2 [4]) [nM] | Compound
18800 | 2650 | 14400 | 5000 | COc1ccc(NS(N)(=O)=O)cc1
1740 | 1000 | 892 | 1500 | NS(=O)(=O)Nc1ccc([N+](=O)[O-])cc1
